{"source": "patent US20050075375A1", "about": "(priority 2003, published 2005)", "tested_on": "monocistronic NK5.1 HCV replicon in Huh7 cells", "assay": "HCV replicon assay, monocistronic replicon cell line", "format": "cell-based, hepatitis C virus", "conditions": "Hepatitis C virus, Huh-7, 72 h; table T3 (compounds 471-640); monocistronic replicon in Huh7 cells, 3 days incubation, HCV RNA/GAPDH RNA by TaqMan RT-PCR; read-out: Mono EC50 Median", "summary_of_the_method": "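Huh7 cells carrying the monocistronic NK5.1 replicon, seeded 24 h before dosing, were exposed to six-point half-log compound series (0.6% DMSO) for 3 days at 37 °C. Replicon RNA was quantified by TaqMan RT-PCR, normalised to GAPDH and compared with DMSO controls to derive EC50.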", "note": "pEC50: −log10 of the molar value.", "data": [{"smiles": "COc1ccc(O)c(-c2nc(-c3ccccn3)nn2C)c1", "note": "[Compound 598, 4-Methoxy-2-(2-methyl-5-pyridin-2-yl-2H-[1,2,4]triazol-3-yl)-phenol]", "values": [{"measurement": "pEC50", "result": "< 4.49"}]}, {"smiles": "Cn1nc(-c2ccccn2)nc1-c1cc(Cl)ccc1O", "note": "[Compound 599, 4-Chloro-2-(2-methyl-5-pyridin-2-yl-2H-[1,2,4]triazol-3-yl)-phenol]", "values": [{"measurement": "pEC50", "result": 4.92}]}, {"smiles": "Cn1nc(-c2ccccn2)nc1-c1ccc(OCc2ccccc2)cc1O", "note": "[Compound 600, 5-Benzyloxy-2-(2-methyl-5-pyridin-2-yl-2H-[1,2,4]triazol-3-yl)-phenol]", "values": [{"measurement": "pEC50", "result": 5.30}]}, {"smiles": "COc1ccc(-c2nc(-c3ccccn3)nn2C)c(O)c1", "note": "[Compound 601, 5-Methoxy-2-(2-methyl-5-pyridin-2-yl-2H-[1,2,4]triazol-3-yl)-phenol]", "values": [{"measurement": "pEC50", "result": "< 4.49"}]}, {"smiles": "Cn1nc(-c2ccccn2)nc1-c1ccccc1O", "note": "[Compound 602, 2-(2-methyl-5-pyridin-2-yl-2H-[1,2,4]triazol-3-yl)-phenol]", "values": [{"measurement": "pEC50", "result": "< 4.49"}]}, {"smiles": "COc1cccc(-c2nc(-c3ccccn3)nn2C)c1O", "note": "[Compound 603, 6-Methoxy-2-(2-methyl-5-pyridin-2-yl-2H-[1,2,4]triazol-3-yl)-phenol]", "values": [{"measurement": "pEC50", "result": "< 4.49"}]}, {"smiles": "Cn1nc(-c2ccccn2)nc1-c1cc(O)ccc1O", "note": "[Compound 604, 4-Hydroxy-2-(2-methyl-5-pyridin-2-yl-2H-[1,2,4]triazol-3-yl)-phenol]", "values": [{"measurement": "pEC50", "result": 4.42}]}, {"smiles": "Cn1nc(-c2ccccn2)nc1-c1c(O)ccc2ccccc12", "note": "[Compound 605, 1-(2-methyl-5-Pyridin-2-yl-2H-[1,2,4]triazol-3-yl)-naphthalen-2-ol]", "values": [{"measurement": "pEC50", "result": 5.05}]}, {"smiles": "Cn1nc(-c2ccccn2)nc1-c1ccc2ccccc2c1O", "note": "[Compound 606, 2-(2-Methyl-5-pyridin-2-yl-2H-[1,2,4]triazol-3-yl)-naphthalen-1-ol]", "values": [{"measurement": "pEC50", "result": 5.62}]}, {"smiles": "Cc1cccnc1-c1nc(-c2cc([N+](=O)[O-])ccc2O)n(C)n1", "note": "[Compound 607, 4-Nitro-2-[2-methyl-5-(3-methyl-pyridin-2-yl)-2H-[1,2,4]triazol-3-yl]-phenol]", "values": [{"measurement": "pEC50", "result": 5.55}]}, {"smiles": "Cc1cccnc1-c1nc(-c2cc(F)ccc2O)n(C)n1", "note": "[Compound 608, 4-Fluoro-2-[2-methyl-5-(3-methyl-pyridin-2-yl)-2H-[1,2,4]triazol-3-yl]-phenol]", "values": [{"measurement": "pEC50", "result": 5.09}]}, {"smiles": "COc1ccc(O)c(-c2nc(-c3ncccc3C)nn2C)c1", "note": "[Compound 609, 4-Methoxy-2-[2-methyl-5-(3-methyl-pyridin-2-yl)-2H-[1,2,4]triazol-3-yl]-phenol]", "values": [{"measurement": "pEC50", "result": 4.77}]}, {"smiles": "Cc1cccnc1-c1nc(-c2cc(Cl)ccc2O)n(C)n1", "note": "[Compound 610, 4-Chloro-2-[2-methyl-5-(3-methyl-pyridin-2-yl)-2H-[1,2,4]triazol-3-yl]-phenol]", "values": [{"measurement": "pEC50", "result": 5.60}]}, {"smiles": "Cc1cccnc1-c1nc(-c2ccc(OCc3ccccc3)cc2O)n(C)n1", "note": "[Compound 611, 5-Benzyloxy-2-[2-methyl-5-(3-methyl-pyridin-2-yl)-2H-[1,2,4]triazol-3-yl]-phenol]", "values": [{"measurement": "pEC50", "result": "< 5.49"}]}, {"smiles": "Cc1cccnc1-c1nc(-c2cc(Br)ccc2O)n(C)n1", "note": "[Compound 612, 4-Bromo-2-[2-methyl-5-(3-methyl-pyridin-2-yl)-2H-[1,2,4]triazol-3-yl]-phenol]", "values": [{"measurement": "pEC50", "result": 5.62}]}, {"smiles": "COc1ccc(-c2nc(-c3ncccc3C)nn2C)c(O)c1", "note": "[Compound 613, 5-Methoxy-2-[2-methyl-5-(3-methyl-pyridin-2-yl)-2H-[1,2,4]triazol-3-yl]-phenol]", "values": [{"measurement": "pEC50", "result": 5.19}]}, {"smiles": "Cc1cccnc1-c1nc(-c2ccccc2O)n(C)n1", "note": "[Compound 614, 2-[2-methyl-5-(3-methyl-pyridin-2-yl)-2H-[1,2,4]triazol-3-yl]-phenol]", "values": [{"measurement": "pEC50", "result": 5.16}]}, {"smiles": "COc1cccc(-c2nc(-c3ncccc3C)nn2C)c1O", "note": "[Compound 615, 6-Methoxy-2-[2-methyl-5-(3-methyl-pyridin-2-yl)-2H-[1,2,4]triazol-3-yl]-phenol]", "values": [{"measurement": "pEC50", "result": 4.74}]}, {"smiles": "Cc1cccnc1-c1nc(-c2cc(O)ccc2O)n(C)n1", "note": "[Compound 616, 4-Hydroxy-2-[2-methyl-5-(3-methyl-pyridin-2-yl)-2H-[1,2,4]triazol-3-yl]-phenol]", "values": [{"measurement": "pEC50", "result": 4.45}]}, {"smiles": "Cc1cccnc1-c1nc(-c2c(O)ccc3ccccc23)n(C)n1", "note": "[Compound 617, 1-[2-methyl-5-(3-methyl-pyridin-2-yl)-2H-[1,2,4]triazol-3-yl]-naphthalen-2-ol]", "values": [{"measurement": "pEC50", "result": "< 4.72"}]}, {"smiles": "Cc1cccnc1-c1nc(-c2ccc3ccccc3c2O)n(C)n1", "note": "[Compound 618, 2-[2-methyl-5-(3-methyl-pyridin-2-yl)-2H-[1,2,4]triazol-3-yl]-naphthalen-1-ol]", "values": [{"measurement": "pEC50", "result": 5.82}]}, {"smiles": "Oc1c(Cl)cc(Cl)cc1-c1nc(-c2ccccn2)n[nH]1", "note": "[Compound 619, 4,6-Dichloro-2-(5-pyridin-2-yl-2H-[1,2,4]triazol-3-yl)-phenol]", "values": [{"measurement": "pEC50", "result": 6.52}]}, {"smiles": "Oc1c(Br)cc(Br)cc1-c1nc(-c2ccccn2)n[nH]1", "note": "[Compound 620, 4,6-Dibromo-2-(5-pyridin-2-yl-2H-[1,2,4]triazol-3-yl)-phenol]", "values": [{"measurement": "pEC50", "result": 6.22}]}, {"smiles": "Oc1c(Br)cc(Cl)cc1-c1nc(-c2ccccn2)n[nH]1", "note": "[Compound 621, 4-Chloro-6-bromo-2-(5-pyridin-2-yl-2H-[1,2,4]triazol-3-yl)-phenol]", "values": [{"measurement": "pEC50", "result": 6.30}]}, {"smiles": "Cc1cccnc1-c1n[nH]c(-c2cc(Cl)cc(Cl)c2O)n1", "note": "[Compound 622, 4,6-Dichloro-2-[5-(3-methyl-pyridin-2-yl)-2H-[1,2,4]triazol-3-yl]-phenol]", "values": [{"measurement": "pEC50", "result": 5.85}]}, {"smiles": "Cc1cccnc1-c1n[nH]c(-c2cc(Br)cc(Br)c2O)n1", "note": "[Compound 623, 4,6-Dibromo-2-[5-(3-methyl-pyridin-2-yl)-2H-[1,2,4]triazol-3-yl]-phenol]", "values": [{"measurement": "pEC50", "result": 5.82}]}, {"smiles": "Cc1cccnc1-c1n[nH]c(-c2cc(Cl)cc(Br)c2O)n1", "note": "[Compound 624, 4-Chloro-6-bromo-2-[5-(3-methyl-pyridin-2-yl)-2H-[1,2,4]triazol-3-yl]-phenol]", "values": [{"measurement": "pEC50", "result": 5.66}]}, {"smiles": "Cn1nc(-c2ccccn2)nc1-c1cc(Cl)cc(Cl)c1O", "note": "[Compound 625, 4,6-Dichloro-2-(2-methyl-5-pyridin-2-yl-2H-[1,2,4]triazol-3-yl)-phenol]", "values": [{"measurement": "pEC50", "result": 5.49}]}, {"smiles": "Cn1nc(-c2ccccn2)nc1-c1cc(Br)cc(Br)c1O", "note": "[Compound 626, 4,6-Dibromo-2-(2-methyl-5-pyridin-2-yl-2H-[1,2,4]triazol-3-yl)-phenol]", "values": [{"measurement": "pEC50", "result": 5.32}]}, {"smiles": "Cn1nc(-c2ccccn2)nc1-c1cc(Cl)cc(Br)c1O", "note": "[Compound 627, 6-Bromo-4-Chloro-2-(2-methyl-5-pyridin-2-yl-2H-[1,2,4]triazol-3-yl)-phenol]", "values": [{"measurement": "pEC50", "result": 5.60}]}, {"smiles": "c1ccc(-c2ncn(-c3ccccn3)n2)cc1", "note": "[Compound 628, 2-(3-Phenyl-[1,2,4]triazol-1-yl)-pyridine]", "values": [{"measurement": "pEC50", "result": "< 4.49"}]}, {"smiles": "Oc1ccccc1-c1ncn(-c2ccccn2)n1", "note": "[Compound 629, 2-(1-Pyridin-2-yl-1H-[1,2,4]triazol-3-yl)-phenol]", "values": [{"measurement": "pEC50", "result": 4.80}]}, {"smiles": "Oc1ccc(Cl)cc1-c1ncn(-c2ccccn2)n1", "note": "[Compound 630, 4-Chloro-2-(1-pyridin-2-yl-1H-[1,2,4]triazol-3-yl)-phenol]", "values": [{"measurement": "pEC50", "result": 4.96}]}, {"smiles": "Oc1ccc(Br)cc1-c1ncn(-c2ccccn2)n1", "note": "[Compound 631, 4-Bromo-2-(1-pyridin-2-yl-1H-[1,2,4]triazol-3-yl)-phenol]", "values": [{"measurement": "pEC50", "result": 5.85}]}, {"smiles": "COc1ccc(O)c(-c2nc(-c3ncccc3C(F)(F)F)nn2C)c1", "note": "[Compound 632, 4-Methoxy-2-[2-methyl-5-(3-trifluoromethyl-pyridin-2-yl)-2H-[1,2,4]triazol-3-yl]-phenol]", "values": [{"measurement": "pEC50", "result": 4.51}]}, {"smiles": "Cn1nc(-c2ncccc2C(F)(F)F)nc1-c1cc(Br)ccc1O", "note": "[Compound 633, 4-Bromo-2-[2-methyl-5-(3-trifluoromethyl-pyridin-2-yl)-2H-[1,2,4]triazol-3-yl]phenol]", "values": [{"measurement": "pEC50", "result": 5.44}]}, {"smiles": "Oc1ccc(Br)cc1-c1ncn(-c2ncccc2C(F)(F)F)n1", "note": "[Compound 634, 4-Bromo-2-[1-(3-trifluoromethyl-pyridin-2-yl)-1H-[1,2,4]triazol-3-yl]-phenol]", "values": [{"measurement": "pEC50", "result": 5.42}]}, {"smiles": "Cc1cccnc1-n1cnc(-c2cc(Br)ccc2O)n1", "note": "[Compound 635, 4-Bromo-2-[1-(3-methyl-pyridin-2-yl)-1H-[1,2,4]triazol-3-yl]-phenol]", "values": [{"measurement": "pEC50", "result": 5.21}]}, {"smiles": "COc1ccc(O)c(-c2ncn(-c3ccccn3)n2)c1", "note": "[Compound 636, 4-Methoxy-2-(1-pyridin-2-yl-1H-[1,2,4]triazol-3-yl)-phenol]", "values": [{"measurement": "pEC50", "result": 4.82}]}, {"smiles": "COc1ccc(O)c(-c2ncn(-c3ncccc3C)n2)c1", "note": "[Compound 637, 4-Methoxy-2-[1-(3-methyl-pyridin-2-yl)-1H-[1,2,4]triazol-3-yl]-phenol]", "values": [{"measurement": "pEC50", "result": 4.92}]}, {"smiles": "COc1ccc(O)c(-c2ncn(-c3ncccc3C(F)(F)F)n2)c1", "note": "[Compound 638, 4-Methoxy-2-[1-(3-trifluoromethyl-pyridin-2-yl)-1H-[1,2,4]triazol-3-yl]-phenol]", "values": [{"measurement": "pEC50", "result": 4.96}]}, {"smiles": "c1ccc(-c2ncn(-c3ccccn3)n2)nc1", "note": "[Compound 639]", "values": [{"measurement": "pEC50", "result": "< 4.49"}]}, {"smiles": "Cn1nc(-c2ncccc2C(F)(F)F)nc1-c1cc([N+](=O)[O-])ccc1O", "note": "[Compound 640, 4-Nitro-2-[2-methyl-5-(3-trifluoromethyl-pyridin-2-yl)-2H-[1,2,4]triazol-3-yl]-phenol]", "values": [{"measurement": "pEC50", "result": "< 4.49"}]}]}
